From the Deep4Chem optical property database
Each block holds one molecule with its values, some of them ahead of it.

Assay: solvent given as SMILES

Compound: CN(C)c1ccc(/C=C/C=C/c2nc3ccccc3s2)cc1
emission maximum (in C1COCCO1): 516 nm
emission maximum (in CC#N): 562 nm
emission maximum (in CC(C)=O): 557 nm
emission maximum (in CCCCCC): 478 nm
emission maximum (in CCCCO): 531 nm
emission maximum (in CCCO): 533 nm
emission maximum (in CCO): 560 nm
emission maximum (in CN(C)C=O): 567 nm
emission maximum (in CO): 573 nm
emission maximum (in Cc1ccccc1): 500 nm
emission maximum (in ClC(Cl)(Cl)Cl): 499 nm
emission maximum (in ClC(Cl)Cl): 526 nm
emission maximum (in ClCCl): 533 nm
emission maximum (in OCC(O)CO): 583 nm
emission maximum (in OCCO): 583 nm
emission maximum (in c1ccccc1): 504 nm

Compound: c1ccc(N(c2ccccc2)c2ccc3c(ccc4nc5ccc6cc(N(c7ccccc7)c7ccccc7)ccc6c5nc43)c2)cc1
emission maximum (in C1CCCCC1): 492 nm
emission maximum (in C1CCOC1): 552 nm
emission maximum (in CN(C)C=O): 626 nm
emission maximum (in Cc1ccccc1): 512 nm
emission maximum (in ClCCl): 576 nm

Compound: c1ccc(-c2nc(-c3ccccc3)nc(-c3ccc(-n4c5ccccc5c5cc6c7ccccc7n7c8ccccc8c(c54)c67)cc3)n2)cc1
emission maximum (in Cc1ccccc1): 450 nm
emission maximum (in O=P(c1ccccc1)(c1ccccc1)c1ccc2oc3ccc(P(=O)(c4ccccc4)c4ccccc4)cc3c2c1): 460 nm

Compound: COc1ccc2c(C=C(C#N)C#N)cc3ccc4cc(C=C(C#N)C#N)c5ccc(OC)cc5c4c3c2c1
emission maximum (in ClC(Cl)Cl): 545 nm

Compound: CCC1=C(C)C2=Cc3c(I)c(I)c(I)n3[B-](F)(F)[N+]2=C1C
emission maximum (in C1CCCCC1): 551.5 nm
emission maximum (in CC(C)=O): 553 nm
emission maximum (in CCO): 557 nm
emission maximum (in CCOC(C)=O): 553.5 nm
emission maximum (in CO): 554 nm
emission maximum (in OCC(F)(F)F): 550.5 nm

Compound: COc1ccc2c(c1)C(C)(C)c1c-2c2ccc(OC)cc2c2cc(OC)ccc12
emission maximum (in C1CCCCC1): 398 nm

Compound: c1ccc(-c2csc(-c3ccncc3)n2)cc1
emission maximum (in CC#N): 498 nm
emission maximum (in CCO): 407 nm
emission maximum (in CN(C)C=O): 402 nm
emission maximum (in ClCCl): 472 nm

Compound: CCOC(=O)CSc1nc(-c2ccc(OC)cc2)c(C)c(C#N)c1C#N
emission maximum (in c1ccccc1): 432 nm

Compound: COc1ccc(N(c2ccc(OC)cc2)c2ccc3ccc4c(B(c5c(C)cc(C)cc5C)c5c(C)cc(C)cc5C)ccc5ccc2c3c54)cc1
emission maximum (in C1CCOC1): 626 nm
emission maximum (in CC(C)=O): 658 nm
emission maximum (in CCCCCC): 534 nm
emission maximum (in Cc1ccccc1): 575 nm
emission maximum (in ClC(Cl)Cl): 601 nm
emission maximum (in ClCCl): 633 nm

Compound: CC(C)[Si](C#Cc1c2cc3ccccc3cc2c(C#C[Si](C(C)C)(C(C)C)C(C)C)c2cc3ccccc3cc12)(C(C)C)C(C)C
emission maximum (in ClCCl): 649 nm

Compound: CCC1=C(C)C2=C(C)c3cc(I)cn3[B-](F)(F)[N+]2=C1C
emission maximum (in C1CCCCC1): 532 nm
emission maximum (in CC(C)=O): 532.5 nm
emission maximum (in CCO): 534 nm
emission maximum (in CCOC(C)=O): 531.5 nm
emission maximum (in CO): 533.5 nm
emission maximum (in OCC(F)(F)F): 530.5 nm

Compound: CCOC(=O)/C(C#N)=C\c1ccc2c(c1)c1ccccc1n2-c1ccc(OC)cc1
emission maximum (in C1CCOC1): 460 nm
emission maximum (in CC#N): 522 nm
emission maximum (in CC(C)=O): 508 nm
emission maximum (in CCOC(C)=O): 479 nm
emission maximum (in CO): 532 nm
emission maximum (in CS(C)=O): 542 nm
emission maximum (in Cc1ccccc1): 455 nm
emission maximum (in ClC(Cl)Cl): 486 nm

Compound: CC/[NH+]=c1\cc2oc3cc(NCCC(=O)NC(CCC(=O)OC)C(=O)OC)c4ccccc4c3nc-2cc1C (stereo not given)
emission maximum (in CCO): 644 nm
emission maximum (in O): 652 nm

Compound: F[B-]1(F)n2c(c3cccc4cccc2c43)=Nc2ccc3ccccc3[n+]21
emission maximum (in C1CCOC1): 508 nm
emission maximum (in CC#N): 505 nm
emission maximum (in CCCCCC): 502 nm
emission maximum (in Cc1ccccc1): 511 nm
emission maximum (in ClCCl): 536 nm

Compound: CC1(C)c2ccccc2-n2c(-c3ccc(-n4c5ccc(-n6c7ccccc7c7ccccc76)cc5c5cc(-n6c7ccccc7c7ccccc76)ccc54)cc3)nc3cccc1c32
emission maximum (in Cc1ccccc1): 401 nm
emission maximum (in O=P(c1ccccc1)(c1ccccc1)c1ccccc1Oc1ccccc1P(=O)(c1ccccc1)c1ccccc1): 409 nm

The next lines start with the values.

emission maximum (in ClC(Cl)Cl): 414 nm
Compound: O=Cc1ccc(Oc2ccc3c4c(cccc24)C(=O)N(CCO)C3=O)cc1

emission maximum (in ClCCl): 510 nm
Compound: CN(C)c1cc(-c2ccc(C#Cc3cc[n+](C)cc3)cc2)cc2ccccc12

emission maximum (in ClC(Cl)Cl): 565 nm
Compound: CCCCCCN1C(=O)c2cccc3cc(/N=C\c4ccc(N(c5ccccc5)c5ccccc5)cc4)cc(c23)C1=O

emission maximum (in ClCCl): 566 nm
Compound: COc1ccc2cc(C#CC3=C4CCc5ccccc5C4=[O+][B-](F)(F)O3)ccc2c1

emission maximum (in CC#N): 760 nm
emission maximum (in CCO): 745 nm
emission maximum (in CO): 749 nm
emission maximum (in ClC(Cl)Cl): 757 nm
Compound: C[N+]1=C(/C=C/C2=C3Oc4c(cc5c6c4CCCN6CCC5)C(c4ccccc4C(=O)O)=C3CCC2)C(C)(C)c2ccccc21

emission maximum (in C1COCCO1): 616 nm
Compound: COc1ccc(C2=C/C(=C\c3ccc([N+](=O)[O-])cc3)C(=O)N2CC(C)C)cc1

emission maximum (in ClC(Cl)Cl): 643 nm
Compound: CCN1/C(=C\C2=C([O-])C(=C/C3=[N+](CC)c4ccccc4C3(C)C)/C2=O)C(C)(C)c2ccccc21

emission maximum (in CCO): 501 nm
emission maximum (in ClCCl): 502 nm
emission maximum (in O): 596 nm
Compound: N#CC(C#N)=Cc1ccc(-c2ccc(-c3nc4ccccc4s3)c(O)c2)o1

emission maximum (in CS(C)=O): 527 nm
Compound: C(/C=C/Nc1cccc2ccccc12)=[NH+]c1cccc2ccccc12
